In patent US5070207A, “Phospholipase A2 inhibitors” (American Home Products Corporation, priority 1990, dated 1991):

Test system: PLA2 (A. piscivorus piscivorus) induced paw edema
Assay: in vivo PLA2 murine paw edema assay
Design: species or system mouse (male CD-1)
Details: for ED50: Mus musculus, ip
Description: The ability of the compounds of the invention to inhibit paw edema induced by the exogenous administration of PLA2 is measured in the in vivo PLA2 murine paw edema assay.
Non-fasted, male CD-1 mice (8 weeks old; 31-36 grams) are placed in plastic boxes in groups of six. The right hind paw volume is measured using mercury plethysmography (zero time). Compounds are dosed orally (0.5 mL of 0.5% Tween-80) 1 or 3 hours prior to PLA2 injection or intravenously (0.2 mL in 0.3% dimethylsulfoxide/saline) 3 minutes prior to PLA2 injection. A solution of purified PLA2, from the diamond back cotton mouth snake (A. piscivorus piscivorus) is prepared in saline at a concentration of 6 μg/mL. Fifty (50) μL (0.3 μg) of this PLA2 solution is injected subcutaneously into the right hind paw with a plastic 1 mL plastic syringe (27 gauge, 1" needle). Paw volume of the injected paw is measured again at 10 minutes, 30 minutes and 60 minutes after PLA2 injection. Animals are euthanized with CO2 at the completion of the study.
The paw edema is calculated by subtracting the zero time volume from the volume recorded at each time period. Mean paw edema for each treatment group is then calculated and expressed as (μL±S.E.). Drug effects are expressed as a percent change from control (vehicle) values. Statistical significance is determined by a oneway analysis of variance with LSD comparison to control (p<0.05). ED50 's are determined using repression analysis.

COc1cccc2c1cc([N+](=O)[O-])c1c(C(=O)O)cc3c(c12)OCO3 [Aristolochic Acid, reference compound]
ED50 at +10 min. (p.o., standard drugs): Not Active

O=C(C#CCCCn1c2ccccc2c2ccccc21)C(F)(F)F [Example 2, 7-(9H-Carbazol-9-yl)-1,1,1-trifluoro-3-heptyn-2-one]
ED50: 1 mg/kg

COc1ccc2cc([C@H](C)C(=O)O)ccc2c1 [Naproxen, reference compound]
ED50 at +10 min. (p.o., standard drugs): 18 mg/kg

O=C(C#CCCCOc1ccc(Cl)cc1)C(F)(F)CCc1ccccc1 [Example 7, 9-(4-Chlorophenoxy)-3,3-difluoro-1-phenyl-5-nonyn-4-one]
ED50: 3 mg/kg

C[C@@H]1C[C@H]2[C@@H]3CCC4=CC(=O)C=C[C@]4(C)[C@@]3(F)[C@@H](O)C[C@]2(C)[C@@]1(O)C(=O)CO [Dexamethasone, reference compound]
ED50 at +10 min. (p.o. 3 hr, standard drug): 10 mg/kg

O=C(C#CCCCOc1ccc(F)cc1)C(F)(F)F [Example 3, 1,1,1-Trifluoro-7-(4-fluorophenoxy)-3-heptyn-2-one]
ED50: 30 mg/kg

Luffarrellolide [reference compound]
ED50 at +10 min. (p.o., standard drugs): Not Active

CC(C)(C)c1ccc(OCCCC#CC(=O)C(F)(F)F)cc1 [Example 4, 7-[4-(1,1-Dimethylethyl)phenoxy]-1,1,1-trifluoro-3-heptyn-2-one]
% Change in Edema 10 min (30 mg/kg i.p.): -45%

O=C(C#CCCCOc1ccc(Cl)cc1)C(F)(F)F [Example 1, 7-(4-Chlorophenoxy)-1,1,1-trifluoro-3-heptyn-2-one]
% Change in Edema 10 min (10 mg/kg i.v.): -64%
% Change in Edema 30 min (10 mg/kg i.v.): -34%
% Change in Edema 60 min (10 mg/kg i.v.): -39%
% Change in Edema 10 min (100 mg/kg p.o.): -26%
% Change in Edema 30 min (100 mg/kg p.o.): -37%
% Change in Edema 60 min (100 mg/kg p.o.): -23%
ED50: 3 mg/kg
